Source: patent US8163935B2, “Fused heterocyclic compounds” (Takeda Pharmaceutical Company Limited, priority 2005, dated 2012)
Counter-ions that a name gives are not always drawn.

SMILES	melting point
CCc1cc(CC)n(-c2cccc3nc(Oc4c(C)cc(Cl)cc4Cl)n(C)c23)n1 [Example 162, 2-(2,4-Dichloro-6-methylphenoxy)-7-(3,5-diethyl-1H-pyrazol-1-yl)-1-methyl-1H-benzimidazole]	115 to 119 °C
CCCC(CCC)c1ccc(Cl)c2nc(Nc3ccc(Cl)cc3OC(F)(F)F)n(C)c12 [Example 94, 4-Chloro-N-[4-chloro-2-(trifluoromethoxy)phenyl]-1-methyl-7-(1-propylbutyl)-1H-benzimidazol-2-amine]	130 to 132 °C
CCCC(O)(CCC)c1cccc2nc(Nc3c(C)cc(C)cc3C)n(CCO)c12 [Example 73, 4-[1-(2-Hydroxyethyl)-2-(mesitylamino)-1H-benzimidazol-7-yl]heptan-4-ol]	267 to 270 °C
CCC(CC)c1ccc(CN2CCCC2)c2nc(Oc3c(C)cc(Cl)cc3Cl)n(C)c12 [Example 156, 2-(2,4-Dichloro-6-methylphenoxy)-7-(1-ethylpropyl)-1-methyl-4-(pyrrolidin-1-ylmethyl)-1H-benzimidazole]	107 to 108 °C
CCC(CC)c1ccc(C(F)(F)F)c2nc(Nc3c(C)cc(Cl)cc3OC)n(C)c12 [Example 158, N-(4-Chloro-2-methoxy-6-methylphenyl)-7-(1-ethylpropyl)-1-methyl-4-(trifluoromethyl)-1H-benzimidazol-2-amine]	187 to 188 °C
CCCC(CCC)c1ccc(Cl)c2nc(Nc3ccc(Cl)cc3Br)n(C)c12 [Example 92, N-(2-Bromo-4-chlorophenyl)-4-chloro-1-methyl-7-(1-propylbutyl)-1H-benzimidazol-2-amine]	145 to 147 °C
CCCC(CCC)c1ccc(Cl)c2nc(Oc3c(C)cc(Cl)cc3Cl)n(C)c12 [Example 129, 4-Chloro-2-(2,4-dichloro-6-methylphenoxy)-1-methyl-7-(1-propylbutyl)-1H-benzimidazole]	148 to 150 °C
CCCC(CCC)c1ccc(Cl)c2nc(Nc3c(C)cc(Cl)cc3C)n(C)c12 [Example 114, 4-Chloro-N-(4-chloro-2,6-dimethylphenyl)-1-methyl-7-(1-propylbutyl)-1H-benzimidazol-2-amine]	230 to 232 °C
CCC(CC)c1ccc(OC)c2nc(Oc3ccc(Cl)cc3Br)n(C)c12 [Example 146, 2-(2-Bromo-4-chlorophenoxy)-7-(1-ethylpropyl)-4-methoxy-1-methyl-1H-benzimidazole]	106 to 107 °C
CCC(CC)c1cc(Br)cc2nc(Nc3c(C)cc(Cl)cc3OC)n(C)c12 [Example 121, 5-Bromo-N-(4-chloro-2-methoxy-6-methylphenyl)-7-(1-ethylpropyl)-1-methyl-1H-benzimidazol-2-amine]	276 to 278 °C
CCCC(CCC)c1ccc(Cl)c2nc(Nc3ccc(Br)cc3Cl)n(C)c12 [Example 93, N-(4-Bromo-2-chlorophenyl)-4-chloro-1-methyl-7-(1-propylbutyl)-1H-benzimidazol-2-amine]	145 to 147 °C
CCC(CC)c1ccc(C(=O)OC)c2nc(Oc3c(C)cc(Cl)cc3Cl)n(C)c12 [Example 153, Methyl 2-(2,4-dichloro-6-methylphenoxy)-7-(1-ethylpropyl)-1-methyl-1H-benzimidazole-4-carboxylate]	177 to 178 °C
CCCC(CCC)c1ccc(Cl)c2nc(Oc3c(C)cc(C)cc3C)n(C)c12 [Example 124, 4-Chloro-2-(mesityloxy)-1-methyl-7-(1-propylbutyl)-1H-benzimidazole]	165 to 167 °C
CCC(CC)c1ccc(Br)c2nc(Nc3c(C)cc(Cl)cc3OC)n(C)c12 [Example 96, 4-Bromo-N-(4-chloro-2-methoxy-6-methylphenyl)-7-(1-ethylpropyl)-1-methyl-1H-benzimidazol-2-amine]	198 to 199 °C
CCC(CC)c1ccc(-c2ccco2)c2nc(Oc3ccc(Cl)cc3Br)n(C)c12 [Example 149, 2-(2-Bromo-4-chlorophenoxy)-7-(1-ethylpropyl)-4-(2-furyl)-1-methyl-1H-benzimidazole]	159 to 162 °C
CCCC(CCC)c1ccc(Cl)c2nc(Nc3cc(C(F)(F)F)c(O)cc3Cl)n(C)c12 [Example 122, 5-Chloro-4-{[4-chloro-1-methyl-7-(1-propylbutyl)-1H-benzimidazol-2-yl]amino}-2-(trifluoromethyl)phenol]	197 to 199 °C
CCC(CC)c1ccc(Cl)c2nc(Nc3ccc(C)cc3Br)n(C)c12 [Example 86, N-(2-Bromo-4-methylphenyl)-4-chloro-7-(1-ethylpropyl)-1-methyl-1H-benzimidazol-2-amine]	174 to 176 °C

SMILES	melting point
CCC(CC)c1ccc(Cl)c2nc(Oc3ccc(Cl)cc3Br)n(C)c12 [Example 135, 2-(2-Bromo-4-chlorophenoxy)-4-chloro-7-(1-ethylpropyl)-1-methyl-1H-benzimidazole]	114 to 115 °C
C/C=C(/CC)c1ccc(Cl)c2nc(Nc3c(C)cc(Cl)cc3OC)n(C)c12 [Example 109, 4-Chloro-N-(4-chloro-2-methoxy-6-methylphenyl)-7-[(1Z)-1-ethylprop-1-en-1-yl]-1-methyl-1H-benzimidazol-2-amine]	166 to 168 °C
CCC(CC)c1ccc(Cl)c2nc(Oc3c(OC)cc(C)cc3OC)n(C)c12 [Example 126, 4-Chloro-2-(2,6-dimethoxy-4-methylphenoxy)-7-(1-ethylpropyl)-1-methyl-1H-benzimidazole]	161 to 162 °C
CCC(CC)c1ccc(Cl)c2nc(Oc3c(C)cc(Cl)cc3OC)n(C)c12 [Example 144, 4-Chloro-2-(4-chloro-2-methoxy-6-methylphenoxy)-7-(1-ethyl-1-propyl)-1-methyl-1H-benzimidazole]	165 to 167 °C
CCC(CC)c1ccc(Cl)c2nc(Oc3c(Cl)cc(N(C)C)cc3Cl)n(C)c12 [Example 142, 3,5-Dichloro-4-{[4-chloro-7-(1-ethylpropyl)-1-methyl-1H-benzimidazol-2-yl]oxy}-N,N-dimethylaniline]	200 to 202 °C
COc1cc(Cl)cc(C)c1Nc1nc2c(Cl)ccc(C(=C(C)C)C(C)C)c2n1C [Example 108, 4-Chloro-N-(4-chloro-2-methoxy-6-methylphenyl)-7-(1-isopropyl-2-methylprop-1-en-1-yl)-1-methyl-1H-benzimidazol-2-amine]	166 to 168 °C
CCC(CC)c1ccc(Cl)c2nc(Oc3c(Cl)cc(Cl)cc3C(=O)N(C)C)n(C)c12 [Example 143, 3,5-Dichloro-2-{[4-chloro-7-(1-ethylpropyl)-1-methyl-1H-benzimidazol-2-yl]oxy}-N,N-dimethylbenzamide]	141 to 143 °C
CCCC(CCC)c1ccc(Cl)c2nc(Oc3ccc(Cl)cc3Cl)n(C)c12 [Example 127, 4-Chloro-2-(2,4-dichlorophenoxy)-1-methyl-7-(1-propylbutyl)-1H-benzimidazole]	87 to 88 °C
CCC(CC)c1ccc(Cl)c2nc(Nc3ccc(OC(F)(F)F)cc3Cl)n(C)c12 [Example 87, 4-Chloro-N-[2-chloro-4-(trifluoromethoxy)phenyl]-7-(1-ethylpropyl)-1-methyl-1H-benzimidazol-2-amine]	122 to 123 °C
CCC(CC)c1ccc(Cl)c2nc(Nc3c(Cl)cc(OC(F)(F)F)cc3Cl)n(C)c12 [Example 79, 4-Chloro-N-[2,6-dichloro-4-(trifluoromethoxy)phenyl]-7-(1-ethylpropyl)-1-methyl-1H-benzimidazol-2-amine]	147 to 149 °C
CCCC(CCC)c1ccc(Cl)c2nc(Oc3c(C)cc(Cl)cc3C)n(C)c12 [Example 130, 4-Chloro-2-(4-chloro-2,6-dimethylphenoxy)-1-methyl-7-(1-propylbutyl)-1H-benzimidazole]	160 to 162 °C
CCCC(CCC)c1ccc(Cl)c2nc(Nc3ccc(Cl)cc3Cl)n(C)c12 [Example 91, 4-Chloro-N-(2,4-dichlorophenyl)-1-methyl-7-(1-propylbutyl)-1H-benzimidazol-2-amine]	146 to 148 °C
COc1cc(Cl)cc(C)c1Nc1nc2cccc(-c3c(OC)cccc3OC)c2n1C (as salt: trifluoroacetic acid salt) [Example 71, N-(4-chloro-2-methoxy-6-methylphenyl)-7-(2,6-dimethoxyphenyl)-1-methyl-1H-benzimidazol-2-amine Trifluoroacetic acid salt]	288 to 289 °C
CCCC(CCC)c1ccc(Cl)c2nc(Nc3c(C)cc(Br)cc3C)n(C)c12 [Example 115, N-(4-Bromo-2,6-dimethylphenyl)-4-chloro-1-methyl-7-(1-propylbutyl)-1H-benzimidazol-2-amine]	234 to 236 °C
CCC(CC)c1ccc(Cl)c2nc(Oc3c(OC)cc(C)nc3C)n(C)c12 [Example 139, 4-Chloro-7-(1-ethylpropyl)-2-[(4-methoxy-2,6-dimethylpyridin-3-yl)oxy]-1-methyl-1H-benzimidazole]	183 to 184 °C
CCCC(CCC)c1ccc(Cl)c2nc(Nc3c(C)cc(Br)cc3OC)n(C)c12 [Example 89, N-(4-Bromo-2-methoxy-6-methylphenyl)-4-chloro-1-methyl-7-(1-propylbutyl)-1H-benzimidazol-2-amine]	210 to 211 °C
